± gives the expanded uncertainty stated by the source.
Assay: molar heat capacity at constant pressure; wn = mass fraction of the nth substance listed
Conditions: Small (less than 1 g) adiabatic calorimetry

CCCCn1cc[n+](C)c1.[Br-] [1-butyl-3-methylimidazolium bromide] + O
Crystal
Conditions	molar heat capacity at constant pressure [J/K/mol]
218.45 K, w2 = 0.00482	179.81 ± 0.92
218.58 K, w2 = 0.0495	158.93 ± 0.83
218.67 K, w2 = 0.00482	179.82 ± 0.92
219.16 K, w2 = 0.0051	180.49 ± 0.92
219.16 K, w2 = 0.0169	170.74 ± 0.88
219.92 K, w2 = 0.0169	174.79 ± 0.9
220.75 K, w2 = 0.00482	181.03 ± 0.93
221.08 K, w2 = 0.00482	181.37 ± 0.93
221.13 K, w2 = 0.0495	162.83 ± 0.85
221.26 K, w2 = 0.0169	172.67 ± 0.89
221.69 K, w2 = 0.0051	182.19 ± 0.93
221.98 K, w2 = 0.0169	175.21 ± 0.9
222.83 K, w2 = 0.00482	182.24 ± 0.93
223.35 K, w2 = 0.0169	174.92 ± 0.9
223.65 K, w2 = 0.0495	166.27 ± 0.86
224.06 K, w2 = 0.0169	176.93 ± 0.91
224.22 K, w2 = 0.0051	184.17 ± 0.94
224.86 K, w2 = 0.00482	183.19 ± 0.93
225.43 K, w2 = 0.0169	177.21 ± 0.91
226.12 K, w2 = 0.0169	179.17 ± 0.92
226.16 K, w2 = 0.0495	169.5 ± 0.88
226.71 K, w2 = 0.00482	184.71 ± 0.94
226.73 K, w2 = 0.0051	185.92 ± 0.94
227.52 K, w2 = 0.0169	179.5 ± 0.92
228.19 K, w2 = 0.0169	181.4 ± 0.93
228.65 K, w2 = 0.0495	172.65 ± 0.89
228.79 K, w2 = 0.00482	185.77 ± 0.94
229.25 K, w2 = 0.0051	187.95 ± 0.95
229.6 K, w2 = 0.0169	181.84 ± 0.93
229.71 K, w2 = 0.0051	187.47 ± 0.95
230.25 K, w2 = 0.0169	183.78 ± 0.93
230.87 K, w2 = 0.00482	187.3 ± 0.95
231.12 K, w2 = 0.0495	175.4 ± 0.9
231.45 K, w2 = 0.0051	188.82 ± 0.96
231.69 K, w2 = 0.0169	184.4 ± 0.94
231.75 K, w2 = 0.0051	189.69 ± 0.96
232.32 K, w2 = 0.0169	185.93 ± 0.94
232.95 K, w2 = 0.00482	188.74 ± 0.95
233 K, w2 = 0.0051	190.22 ± 0.96
233.57 K, w2 = 0.0495	178.39 ± 0.92
233.77 K, w2 = 0.0169	186.45 ± 0.94
234.38 K, w2 = 0.0169	187.94 ± 0.96
234.56 K, w2 = 0.0051	191.21 ± 0.96
235.03 K, w2 = 0.00482	190.17 ± 0.96
235.85 K, w2 = 0.0169	188.93 ± 0.96
236.01 K, w2 = 0.0495	181.58 ± 0.93
236.12 K, w2 = 0.0051	192.22 ± 0.97
236.45 K, w2 = 0.0169	189.99 ± 0.96
237.1 K, w2 = 0.00482	191.7 ± 0.97
237.67 K, w2 = 0.0051	193.48 ± 0.97
237.94 K, w2 = 0.0169	190.98 ± 0.96
238.43 K, w2 = 0.0495	184.7 ± 0.95
238.52 K, w2 = 0.0169	191.98 ± 0.98
239.18 K, w2 = 0.00482	193.21 ± 0.97
239.22 K, w2 = 0.0051	194.65 ± 0.98
240.02 K, w2 = 0.0169	193.19 ± 0.98
240.19 K, w2 = 0.00482	193.43 ± 0.97
240.58 K, w2 = 0.0169	194.1 ± 0.98
240.74 K, w2 = 0.0051	195.27 ± 0.98
240.77 K, w2 = 0.0051	195.7 ± 0.98
240.84 K, w2 = 0.0495	187.48 ± 0.95
241.25 K, w2 = 0.00482	195.08 ± 0.98
241.57 K, w2 = 0.00482	194.88 ± 0.98
242.11 K, w2 = 0.0169	195.39 ± 0.98
242.23 K, w2 = 0.0051	196.6 ± 0.99
242.33 K, w2 = 0.0051	196.86 ± 0.99
242.65 K, w2 = 0.0169	196.25 ± 0.98
243.11 K, w2 = 0.00482	195.57 ± 0.98
243.23 K, w2 = 0.0495	190.7 ± 0.96
243.33 K, w2 = 0.00482	196.58 ± 0.99
243.57 K, w2 = 0.0051	197.62 ± 0.99
243.88 K, w2 = 0.0051	198.03 ± 0.99
244.2 K, w2 = 0.0169	197.53 ± 0.99
244.66 K, w2 = 0.00482	197.15 ± 0.99
244.72 K, w2 = 0.0169	198.26 ± 0.99
244.91 K, w2 = 0.0051	198.42 ± 0.99
245.41 K, w2 = 0.00482	198.24 ± 0.99
245.43 K, w2 = 0.0051	199.16 ± 1
245.6 K, w2 = 0.0495	193.88 ± 0.97
246.12 K, w2 = 0.00482	197.87 ± 0.99
246.21 K, w2 = 0.00482	198.68 ± 0.99
246.25 K, w2 = 0.0051	199.47 ± 1
246.28 K, w2 = 0.0169	199.77 ± 0.99
246.78 K, w2 = 0.0169	200.42 ± 0.99
246.98 K, w2 = 0.0051	200.29 ± 1
247.48 K, w2 = 0.00482	199.98 ± 1
247.59 K, w2 = 0.0051	200.49 ± 1
247.77 K, w2 = 0.00482	200.2 ± 1
247.97 K, w2 = 0.0495	197.01 ± 0.99
248.37 K, w2 = 0.0169	201.97 ± 1
248.53 K, w2 = 0.0051	201.44 ± 1
248.85 K, w2 = 0.0169	202.5 ± 1
248.93 K, w2 = 0.0051	201.61 ± 1
249.33 K, w2 = 0.00482	201.33 ± 1
249.56 K, w2 = 0.00482	201.61 ± 1
250.07 K, w2 = 0.0051	202.63 ± 1
250.26 K, w2 = 0.0051	202.66 ± 1
250.31 K, w2 = 0.0495	200.17 ± 1
250.45 K, w2 = 0.0169	204.14 ± 1
250.89 K, w2 = 0.00482	202.59 ± 1
250.91 K, w2 = 0.0169	204.77 ± 1
251.6 K, w2 = 0.0051	203.88 ± 1
251.64 K, w2 = 0.00482	203.37 ± 1
252.15 K, w2 = 0.0051	204.56 ± 1
252.45 K, w2 = 0.00482	203.62 ± 1
252.53 K, w2 = 0.0169	206.36 ± 1
252.64 K, w2 = 0.0495	203.4 ± 1
252.93 K, w2 = 0.0051	205.05 ± 1
252.97 K, w2 = 0.0169	206.96 ± 1
253.72 K, w2 = 0.00482	205.38 ± 1
253.96 K, w2 = 0.00482	204.5 ± 1
254 K, w2 = 0.00482	205.09 ± 1
254.27 K, w2 = 0.0051	206.08 ± 1
254.62 K, w2 = 0.0169	208.6 ± 1
254.74 K, w2 = 0.0051	206.57 ± 1
254.95 K, w2 = 0.0495	206.71 ± 1
255.04 K, w2 = 0.0169	209.12 ± 1
255.56 K, w2 = 0.00482	206.28 ± 1
255.6 K, w2 = 0.0051	207.19 ± 1
255.8 K, w2 = 0.00482	206.96 ± 1
255.99 K, w2 = 0.00482	206.25 ± 1
256.7 K, w2 = 0.0169	211 ± 1.1
256.94 K, w2 = 0.0051	208.23 ± 1

101 kPa, Liquid
Conditions	molar heat capacity at constant pressure [J/K/mol]
220.21 K, w2 = 0.0495	192.42 ± 0.97
221.78 K, w2 = 0.00482	273.75 ± 1.3
222.3 K, w2 = 0.0495	192.93 ± 0.97
223.87 K, w2 = 0.00482	274.35 ± 1.3
224.39 K, w2 = 0.0495	193.35 ± 0.97
225.97 K, w2 = 0.00482	274.97 ± 1.3
226.48 K, w2 = 0.0495	193.78 ± 0.97
228.05 K, w2 = 0.00482	275.41 ± 1.3
228.57 K, w2 = 0.0495	194.3 ± 0.97
230.14 K, w2 = 0.00482	275.97 ± 1.3
230.66 K, w2 = 0.0495	194.89 ± 0.97
232.23 K, w2 = 0.00482	276.47 ± 1.3
232.75 K, w2 = 0.0495	195.6 ± 0.99
234.32 K, w2 = 0.00482	276.93 ± 1.3
236.41 K, w2 = 0.00482	277.36 ± 1.3
238.51 K, w2 = 0.00482	278.01 ± 1.3
240.59 K, w2 = 0.00482	278.63 ± 1.3
242.68 K, w2 = 0.00482	279.3 ± 1.3
244.77 K, w2 = 0.00482	280.02 ± 1.3
246.87 K, w2 = 0.00482	280.54 ± 1.3
248.96 K, w2 = 0.00482	281.17 ± 1.3
256.19 K, w2 = 0.0495	201.27 ± 1
